From publication PMC8844822, “SARM1 is a multi-functional NAD(P)ase with prominent base exchange activity, all regulated bymultiple physiologically relevant NAD metabolites” (iScience, 2022)

Columns and labels:
[1] = target: T1, Aplysia californica ADP ribosyl cyclase (Aplysia californica, UniProt P29241); settings: for use as substrate (consumption rate): dinucleotide 250 μM, 25°C, 2–6 h; for effect of metal ion on activity: metal ions 1 mM
T1 sequence (P29241 25-282): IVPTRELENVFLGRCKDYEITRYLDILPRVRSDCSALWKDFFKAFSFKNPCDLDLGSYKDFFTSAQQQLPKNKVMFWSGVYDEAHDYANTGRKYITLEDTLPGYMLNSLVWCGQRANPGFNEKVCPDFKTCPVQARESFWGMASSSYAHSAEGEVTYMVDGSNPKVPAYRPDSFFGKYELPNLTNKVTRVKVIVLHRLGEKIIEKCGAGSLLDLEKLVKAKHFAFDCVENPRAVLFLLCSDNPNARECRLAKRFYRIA
Method: (§1) hSARM1 species were routinely assayed by the NAD/NADH-Glo^TM Assay (Promega) while both Aplysia cyclase and CD38 were assayed by fluorometry using ϵNAD ([Orsomando et al., 2000]). […] Other reagents used in addition to, or in place of those above are detailed in text or in figure legends, for example metal ions, free bases, dinucleotide analogues, mononucleotides, and ribosides. Assays were all carried out at 25°C except for temperature studies. Reactions were stopped by HClO4/K2CO3 and analysed by C18-HPLC as reported ([Mori et al., 2014]). Only the acid labile NADH and NADPH were treated with 1 N NaOH and neutralized using 1:1 vol of 1.73 M KH2CO3 while the highly hydrophobic metabolites vacor, VAD, VMN and VR, were analysed by a modified C18-HPLC method ([Buonvicino et al., 2018]). Reaction products were quantified from peak areas (see Figure 2A) based on coelution with standards (except for cyclic products from NAD analogues that were not available and were attributed based on UV-spectra and retention times as predicted). Rates were calculated as follows. Hydrolysis and cyclization were measured from product generation from the respective individual dinucleotide substrate used, e.g., free and cyclic ADP-ribosyl moieties from NAD (Figure 1B). A basal value for hydrolysis/cyclization was taken as sum of these latter two products. In addition to that value, base exchange or transglycosidation was calculated from the expected dinucleotide analog formed in the presence of the corresponding free base, e.g., AcPyrAD from AcPyr and NAD.
(§2) The kinetic parameters were calculated from initial rates obtained from replicates via best-fitting analysis using the following Equation 1 for CD38 and Aplysia cyclase, or Equation 2 for hSARM1 SAM-TIR, or Equation 3 for hSARM1 full length(Equation 1) V =Vmax[S]/Km+[S] […] In that case, the resulting single curves were fit to Equation 3 as above to evaluate any competition between NMN and the substrate used (see Table 1).

hCD38 [2] = target: T2, hCD38 (Homo sapiens, UniProt P28907); assay: NAD(P)ase activity by HPLC (kinetics, substrates, metal ions); format: biochemical; settings: for use as substrate (consumption rate): dinucleotide 250 μM, 2–6 h; for effect of metal ion on activity: metal ions 1 mM
T2 construct: a soluble fragment Val43-Ile300 with 6x-His tag at C terminus; 6xHis (C); purchased R&D Systems
T2 sequence (P28907 43-300): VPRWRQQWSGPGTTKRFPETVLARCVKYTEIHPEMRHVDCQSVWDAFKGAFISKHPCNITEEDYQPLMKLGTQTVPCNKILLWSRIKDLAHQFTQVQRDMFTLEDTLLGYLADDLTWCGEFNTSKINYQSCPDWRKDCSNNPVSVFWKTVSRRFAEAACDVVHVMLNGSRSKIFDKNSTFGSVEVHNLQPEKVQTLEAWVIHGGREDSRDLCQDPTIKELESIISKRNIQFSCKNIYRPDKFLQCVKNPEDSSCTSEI
Method: as §1, §2

hSARM1 full length [3] = target: T3, hSARM1 full length (Homo sapiens, UniProt Q6SZW1); assay: as above; format: biochemical; settings: hSARM1; for use as substrate (consumption rate): dinucleotide 250 μM, 25°C, 2–6 h; for effect of metal ion on activity: metal ions 1 mM
T3 construct: Human recombinant SARM1 full length proteins (wild-type and E642A mutant); made in house
T3 sequence (Q6SZW1 28-724): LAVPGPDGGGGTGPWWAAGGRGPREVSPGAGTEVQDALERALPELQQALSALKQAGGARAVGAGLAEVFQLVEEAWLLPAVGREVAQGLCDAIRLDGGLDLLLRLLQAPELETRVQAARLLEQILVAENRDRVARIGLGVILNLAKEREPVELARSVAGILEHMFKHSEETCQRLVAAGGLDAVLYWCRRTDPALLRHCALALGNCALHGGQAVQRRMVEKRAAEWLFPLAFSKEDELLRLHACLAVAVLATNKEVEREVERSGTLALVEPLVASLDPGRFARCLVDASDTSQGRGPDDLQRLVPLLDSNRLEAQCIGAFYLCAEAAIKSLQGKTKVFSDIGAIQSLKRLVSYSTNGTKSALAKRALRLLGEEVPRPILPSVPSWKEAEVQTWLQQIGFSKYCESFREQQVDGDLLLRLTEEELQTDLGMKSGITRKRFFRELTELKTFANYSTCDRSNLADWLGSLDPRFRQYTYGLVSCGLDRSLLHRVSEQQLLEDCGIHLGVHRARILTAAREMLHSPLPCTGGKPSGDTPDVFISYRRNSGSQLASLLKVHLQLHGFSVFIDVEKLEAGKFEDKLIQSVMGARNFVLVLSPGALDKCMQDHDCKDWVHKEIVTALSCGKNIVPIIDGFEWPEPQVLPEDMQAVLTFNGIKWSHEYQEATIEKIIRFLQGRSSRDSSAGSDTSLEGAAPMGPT
Method: as §1, §2

hSARM1 full length [4] = target: T3, hSARM1 full length; assay: Base exchange reactions at neutral pH (HPLC); format: biochemical; settings: for increase of all hSARM1 activities by trigger (plateau): hSARM1 full length, NMN 0.2 mM or VMN 0.05 mM, NAD or NADP 250 μM with or without bases
Method: (§3) Multiple time stops from individual assays as above were analyzed for linearity, then extents of hydrolysis (white bars), cyclization (red bars), or base exchange (black bars) were calculated from each corresponding product as shown in Figure 1B and STAR methods. […] See also Figures S3–S5, and Table S1
as §1

hCD38 [5] = target: T2, hCD38; assay: Base exchange reactions at neutral pH (HPLC); format: biochemical; settings: NADP […] alone or + AcPyr 2 mM / Vacor 0.5 mM / Na 2 mM
Method: as §3, §1

[6] = hSARM1 full length +VMN 0.05 mM, NAD […]
[7] = hSARM1 full length +VMN 0.05 mM, NADP […]
[8] = hSARM1 full length +NMN 0.2 mM, NAD […]
[9] = hSARM1 full length +NMN 0.2 mM, NADP […]

NC(=O)c1ccc[n+]([C@H]2O[C@H](COP(=O)([O-])OP(=O)(O)OC[C@H]3O[C@@H](n4cnc5c(N)ncnc54)[C@H](O)[C@@H]3O)[C@@H](O)[C@H]2O)c1 [αNAD, alpha-NAD]
use as substrate (consumption rate) [1]: no activity | use as substrate (consumption rate) (hCD38 [2]; hCD38, 25°C): no activity | use as substrate (consumption rate) (hSARM1 full length [3]): no activity

Nc1ncnc2c1ncn2[C@@H]1O[C@H](COP(=O)(O)OP(=O)(O)OC[C@H]2O[C@@H]([n+]3cccc(C(=O)O)c3)[C@H](O)[C@@H]2O)[C@@H](O)[C@H]1O [NaAD, nicotinic acid adenine dinucleotide]
use as substrate (consumption rate) [1]: negligible usage | use as substrate (consumption rate) (hCD38 [2]; hCD38, 25°C): negligible usage | use as substrate (consumption rate) (hSARM1 full length [3]): negligible usage

O=C(NCc1ccc[n+]([C@@H]2O[C@H](COP(=O)(O)O)[C@@H](O)[C@H]2O)c1)Nc1ccc([N+](=O)[O-])cc1 [VMN, vacor mononucleotide]
cyclization, share of products (hSARM1 full length [4]; [6]): 8.79% | hydrolysis, share of products (hSARM1 full length [4]; [6]): 91.21% | rate (hSARM1 full length [4]; hSARM1 full length +VMN 0.05 mM, NAD […] alone or + free base): 210.1 ±14.4 mU/mg | rate (relative fold) (hSARM1 full length [4]; hSARM1 full length +VMN 0.05 mM, NAD […], relative to NAD alone without trigger): 9.63 ±0.660 fold | cyclization, share of products (hSARM1 full length [4]; [7]): 0.64% | hydrolysis, share of products (hSARM1 full length [4]; [7]): 99.36% | rate (hSARM1 full length [4]; hSARM1 full length +VMN 0.05 mM, NADP […] alone or + free base): 138.3 ±1.72 mU/mg | rate (relative fold) (hSARM1 full length [4]; hSARM1 full length +VMN 0.05 mM, NADP […], relative to NADP alone without trigger): 9.41 ±0.117 fold | increase of all hSARM1 activities by trigger (plateau) (hSARM1 full length [4]): 8- to 10 fold

[Zn+2] [zinc]
effect of metal ion on activity [1]: clear inhibition | effect of metal ion on activity (hCD38 [2]; hCD38): clear inhibition | effect of metal ion on activity (hSARM1 full length [3]): clear inhibition

Nc1ncnc2c1ncn2[C@@H]1O[C@H](COP(=O)(O)OP(=O)([O-])OC[C@H]2O[C@@H]([n+]3cccc(CNC(=O)Nc4ccc([N+](=O)[O-])cc4)c3)[C@H](O)[C@@H]2O)[C@@H](O)[C@H]1O [VAD, vacor adenine dinucleotide]
use as substrate (consumption rate) [1]: no activity | use as substrate (consumption rate) (hCD38 [2]; hCD38, 25°C): no activity | use as substrate (consumption rate) (hSARM1 full length [3]): no activity

NC(=O)c1ccc[n+]([C@@H]2O[C@H](COP(=O)([O-])OP(=O)(O)OC[C@H]3O[C@@H](n4cnc5c(=O)[nH]c(N)nc54)[C@H](O)[C@@H]3O)[C@@H](O)[C@H]2O)c1 [NGD, nicotinamide guanine dinucleotide]
cyclization, share of total substrate consumption (hCD38 [2]; CD38): ~80%

NC(=O)c1ccc[n+]([C@@H]2O[C@H](COP(=O)([O-])O)[C@@H](O)[C@H]2O)c1 [NMN, nicotinamide mononucleotide]
cyclization, share of products (hSARM1 full length [4]; [8]): 9.51% | hydrolysis, share of products (hSARM1 full length [4]; [8]): 90.49% | rate (hSARM1 full length [4]; hSARM1 full length +NMN 0.2 mM, NAD […] alone or + free base): 187.9 ±26.9 mU/mg | rate (relative fold) (hSARM1 full length [4]; hSARM1 full length +NMN 0.2 mM, NAD […], relative to NAD alone without trigger): 8.61±1.23 fold | cyclization, share of products (hSARM1 full length [4]; [9]): ~ 0.05% | hydrolysis, share of products (hSARM1 full length [4]; [9]): 99.95% | rate (hSARM1 full length [4]; hSARM1 full length +NMN 0.2 mM, NADP […] alone or + free base): 117.3 ±4.72 mU/mg | rate (relative fold) (hSARM1 full length [4]; hSARM1 full length +NMN 0.2 mM, NADP […], relative to NADP alone without trigger): 7.98 ±0.321 fold | increase of all hSARM1 activities by trigger (plateau) (hSARM1 full length [4]): 8- to 10 fold

nicotinamide adenine dinucleotide phosphate [NADP]
Km ([1]; substrate as labelled): 384 ± 0.17 µM | Vmax ([1]; substrate as labelled): 20,043 ± 724 mU/mg | Vmax (hCD38 [2]; hCD38, substrate as labelled): 4376 ± 24.1 mU/mg | Km (hCD38 [2]; hCD38, substrate as labelled, 25°C, pH 7.5): 11.7 ± 0.88 µM | rate (hCD38 [5]): 3521 ±605 mU/mg

[Mg] [magnesium]
effect of metal ion on activity [1]: no effect | effect of metal ion on activity (hCD38 [2]; hCD38): no effect | effect of metal ion on activity (hSARM1 full length [3]): no effect

NC(=O)C1=CN([C@@H]2O[C@H](COP(=O)(O)OP(=O)(O)OC[C@H]3O[C@@H](n4cnc5c(N)ncnc54)[C@H](O)[C@@H]3O)[C@@H](O)[C@H]2O)C=CC1 [NADH]
use as substrate (consumption rate) [1]: negligible usage | use as substrate (consumption rate) (hCD38 [2]; hCD38, 25°C): negligible usage | use as substrate (consumption rate) (hSARM1 full length [3]): negligible usage

NC(=O)C1=CN([C@@H]2O[C@H](COP(=O)(O)OP(=O)(O)OC[C@H]3O[C@@H](n4cnc5c(N)ncnc54)[C@H](OP(=O)(O)O)[C@@H]3O)[C@@H](O)[C@H]2O)C=CC1 [NADPH]
use as substrate (consumption rate) [1]: negligible usage | use as substrate (consumption rate) (hCD38 [2]; hCD38, 25°C): negligible usage | use as substrate (consumption rate) (hSARM1 full length [3]): negligible usage

[Cu+2] [copper]
effect of metal ion on activity [1]: clear inhibition | effect of metal ion on activity (hCD38 [2]; hCD38): clear inhibition | effect of metal ion on activity (hSARM1 full length [3]): clear inhibition

nicotinic acid adenine dinucleotide phosphate [NaADP]
use as substrate (consumption rate) [1]: negligible usage | use as substrate (consumption rate) (hCD38 [2]; hCD38, 25°C): negligible usage | use as substrate (consumption rate) (hSARM1 full length [3]): negligible usage
